# Assay results taken from US20250325677A1, “STAT6 DEGRADERS” (Gilead Sciences, Inc., priority 2024, published 2025).
# Legend:
# [1] = target: STAT6 (Homo sapiens (Human), UniProt P42226); test: STAT6 degrader assay (HiBiT, HeLa LgBiT clone 4.14); assay type: cell-based; details: HeLa LgBiT clone 4.14, 4-24 h; for DC50: geometric mean, given for compounds with >80% Emax, read-out: STAT6 degradation DC50
# Method in brief: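 DC50 (nM) comes from luminescence of non-degraded STAT6 read 0.5 h after Nano-GLO addition, following 4-24 h compound exposure at 37° C. Cells were HeLa clone 4.14 expressing LgBiT with a CRISPR HiBiT tag on endogenous STAT6; 50 μM terfenadine set full degradation.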
# [2] = tested on: eotaxin-3 release; test: Human whole blood eotaxin-3 assay (IL-4 stimulated); assay type: cell-based; details: human whole blood, IL-4 0.4 nM, 48 hours; geometric mean; given for compounds with >80% Emax; read-out: Eotaxin-3 EC50
# Method in brief: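 Human whole blood was preincubated with compound for 120 min at 37 °C, then stimulated with recombinant human IL-4 (E. coli) at 0.4 nM final for 48 h. Inhibition of eotaxin-3 release gave EC50 values.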
# STAT6, sequence (P42226 whole entry): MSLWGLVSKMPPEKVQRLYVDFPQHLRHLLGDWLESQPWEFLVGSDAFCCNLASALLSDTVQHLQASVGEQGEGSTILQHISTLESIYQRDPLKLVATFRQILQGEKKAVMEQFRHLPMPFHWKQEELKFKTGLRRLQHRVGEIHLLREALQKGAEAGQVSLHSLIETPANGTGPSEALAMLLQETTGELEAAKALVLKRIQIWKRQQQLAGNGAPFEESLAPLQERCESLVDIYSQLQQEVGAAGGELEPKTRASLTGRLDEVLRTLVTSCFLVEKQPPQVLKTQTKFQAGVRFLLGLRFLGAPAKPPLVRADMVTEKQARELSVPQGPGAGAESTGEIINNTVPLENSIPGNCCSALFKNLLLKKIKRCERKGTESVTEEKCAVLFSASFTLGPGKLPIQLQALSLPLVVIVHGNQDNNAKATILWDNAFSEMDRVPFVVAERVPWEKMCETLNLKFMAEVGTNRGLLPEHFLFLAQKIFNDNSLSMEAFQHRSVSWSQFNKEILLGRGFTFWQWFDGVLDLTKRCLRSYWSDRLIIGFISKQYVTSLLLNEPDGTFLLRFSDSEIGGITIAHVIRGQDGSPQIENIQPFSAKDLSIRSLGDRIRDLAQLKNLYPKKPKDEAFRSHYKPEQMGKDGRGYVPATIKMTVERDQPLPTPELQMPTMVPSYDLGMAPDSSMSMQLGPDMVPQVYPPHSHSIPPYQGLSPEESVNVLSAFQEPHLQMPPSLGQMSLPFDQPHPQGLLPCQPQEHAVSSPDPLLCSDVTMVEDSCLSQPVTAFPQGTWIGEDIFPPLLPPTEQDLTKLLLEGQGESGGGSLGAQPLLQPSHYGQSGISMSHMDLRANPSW
SMILES,DC50 [1],EC50 [2],Emax ([1]; read-out: STAT6 degradation Emax (%))
"C[C@@H](c1cc2c(-c3ccc(N)nc3)ccnc2n1C)N1CCC(c2ccc(C(=O)N3CCC(CN4CCN(Cc5cc6c(cc5F)n(C5CCC(=O)NC5=O)c(=O)n6C)CC4)CC3)cc2)CC1 (stereo partly drawn) [Example 3e33, 3-(5-((4-((1-(4-(1-((S)-1-(4-(6-aminopyridin-3-yl)-1-methyl-1H-pyrrolo[2,3-b]pyridin-2-yl)ethyl)piperidin-4-yl)benzoyl)piperidin-4-yl)methyl)piperazin-1-yl)methyl)-6-fluoro-3-methyl-2-oxo-2,3-dihydro-1H-benzo[d]imidazol-1-yl)piperidine-2,6-dione]",1.8 nM,4.9 nM,
"CNc1ccc(-c2ccnc3c2cc([C@H](C)N2CC=C(c4c(C)cc(C(=O)N(C)c5ccc(C6CCN(Cc7ccc8c(c7)C7(CC7)C(=O)N8C7CCC(=O)NC7=O)CC6)cc5)cc4F)CC2)n3C)cn1 (stereo partly drawn) [Example 3h11, N-(4-(1-((1′-(2,6-dioxopiperidin-3-yl)-2′-oxospiro[cyclopropane-1,3′-indolin]-5′-yl)methyl)piperidin-4-yl)phenyl)-3-fluoro-N,5-dimethyl-4-(1-((S)-1-(1-methyl-4-(6-(methylamino)pyridin-3-yl)-1H-pyrrolo[2,3-b]pyridin-2-yl)ethyl)-1,2,3,6-tetrahydropyridin-4-yl)benzamide]",0.3 nM,2.8 nM,
"C[C@@H](c1cc2c(-c3ccc(N)nc3)ccnc2n1C)N1CCC(c2ccc(C(=O)N3CCC(CN4CCN(Cc5ccc6c(c5)n(CC5CC5)c(=O)n6C5CCC(=O)NC5=O)CC4)CC3)cc2)CC1 (stereo partly drawn) [Example 3e53, 3-(5-((4-((1-(4-(1-((S)-1-(4-(6-aminopyridin-3-yl)-1-methyl-1H-pyrrolo[2,3-b]pyridin-2-yl)ethyl)piperidin-4-yl)benzoyl)piperidin-4-yl)methyl)piperazin-1-yl)methyl)-3-(cyclopropylmethyl)-2-oxo-2,3-dihydro-1H-benzo[d]imidazol-1-yl)piperidine-2,6-dione]",1.9 nM,7.5 nM,
"C[C@@H](c1cc2c(-c3ccc(N)nc3)ccnc2n1C)N1CCC(c2ccc(C(=O)N3CCC(CN4CCN(Cc5cc6c(cc5F)n(C5CCC(=O)NC5=O)c(=O)n6C5CC5)CC4)CC3)cc2)CC1 (stereo partly drawn) [Example 3e35, 3-(5-((4-((1-(4-(1-((S)-1-(4-(6-aminopyridin-3-yl)-1-methyl-1H-pyrrolo[2,3-b]pyridin-2-yl)ethyl)piperidin-4-yl)benzoyl)piperidin-4-yl)methyl)piperazin-1-yl)methyl)-3-cyclopropyl-6-fluoro-2-oxo-2,3-dihydro-1H-benzo[d]imidazol-1-yl)piperidine-2,6-dione]",3.2 nM,7.9 nM,
"C[C@H]1CN(Cc2ccc3c(c2)C(C)(C)C(=O)N3[C@H]2CCC(=O)NC2=O)CCN1CC1CCN(C(=O)c2ccc(C3CCN([C@@H](C)c4cc5c(-c6ccc(N)nc6)ccnc5n4C)CC3)cc2)CC1 [Example 3h31, (S)-3-(5-(((S)-4-((1-(4-(1-((S)-1-(4-(6-aminopyridin-3-yl)-1-methyl-1H-pyrrolo[2,3-b]pyridin-2-yl)ethyl)piperidin-4-yl)benzoyl)piperidin-4-yl)methyl)-3-methylpiperazin-1-yl)methyl)-3,3-dimethyl-2-oxoindolin-1-yl)piperidine-2,6-dione]",2.5 nM,8 nM,
"C[C@H]1CN(Cc2ccc3c(c2)C2(CC2)C(=O)N3C2CCC(=O)NC2=O)CCN1CC1CCN(C(=O)c2cc(F)c(C3CCN(Cc4cc5c(-c6ccc(N)nc6)ccnc5n4C)CC3)c(F)c2)CC1 (stereo partly drawn) [Example 3h24, 3-(5′-(((S)-4-((1-(4-(1-((4-(6-aminopyridin-3-yl)-1-methyl-1H-pyrrolo[2,3-b]pyridin-2-yl)methyl)piperidin-4-yl)-3,5-difluorobenzoyl)piperidin-4-yl)methyl)-3-methylpiperazin-1-yl)methyl)-2′-oxospiro[cyclopropane-1,3′-indolin]-1′-yl)piperidine-2,6-dione]",1.4 nM,3.9 nM,
"C[C@@H](c1cc2c(-c3ccc(N)nc3)ccnc2n1C)N1CCC(c2ccc(C(=O)N3CCC(CN4CCN(Cc5cc6c(cc5F)N(C5CCC(=O)NC5=O)C(=O)C65CC5)CC4)CC3)cc2)CC1 (stereo partly drawn) [Example 3h9, 3-(5′-((4-((1-(4-(1-((S)-1-(4-(6-aminopyridin-3-yl)-1-methyl-1H-pyrrolo[2,3-b]pyridin-2-yl)ethyl)piperidin-4-yl)benzoyl)piperidin-4-yl)methyl)piperazin-1-yl)methyl)-6′-fluoro-2′-oxospiro[cyclopropane-1,3′-indolin]-1′-yl)piperidine-2,6-dione]",12.7 nM,43.7 nM,
"Cn1c(CN2CCC(c3ccc(C(=O)N4CCC(CN5CCN(Cc6cc7c(cc6F)n(C6CCC(=O)NC6=O)c(=O)n7C)CC5)CC4)cc3)CC2)cc2c(-c3ccc(N)nc3)ccnc21 (centres unmarked) [Example 3e15, 3-(5-((4-((1-(4-(1-((4-(6-aminopyridin-3-yl)-1-methyl-1H-pyrrolo[2,3-b]pyridin-2-yl)methyl)piperidin-4-yl)benzoyl)piperidin-4-yl)methyl)piperazin-1-yl)methyl)-6-fluoro-3-methyl-2-oxo-2,3-dihydro-1H-benzo[d]imidazol-1-yl)piperidine-2,6-dione]",,135 nM,70 to 80%

# Further lines, results first:
DC50 [1],EC50 [2],Emax ([1]; read-out: STAT6 degradation Emax (%)),SMILES
1.8 nM,5.8 nM,,"CNc1ccc(-c2ccnc3c2cc([C@H](C)N2CCC(c4ccc(C(=O)N5CCC(CN6CCN(Cc7ccc8c(c7)n(C7CC7)c(=O)n8[C@@H]7CCC(=O)NC7=O)C[C@@H]6C)CC5)cc4)CC2)n3C)cn1 (single isomer, unassigned) [Example 3h27]"
2 nM,6 nM,,"CC[C@H]1CN(Cc2ccc3c(c2)n(C2CC2)c(=O)n3[C@@H]2CCC(=O)NC2=O)CCN1CC1CCN(C(=O)c2ccc(C3CCN([C@@H](C)c4cc5c(-c6ccc(N)nc6)ccnc5n4C)CC3)cc2)CC1 (single isomer, unassigned) [Example 3e64]"
2.8 nM,4.6 nM,,"C[C@@H](c1cc2c(-c3ccc(N)nc3)ccnc2n1C)N1CCC(c2ccc(C(=O)N3CCC(CN4CCN(Cc5ccc6c(c5)n(C)c(=O)n6C5CCC(=O)NC5=O)C[C@H]4C(F)(F)F)CC3)cc2)CC1 (stereo partly drawn) [Example 3e43, 3-(5-(((S)-4-((1-(4-(1-((S)-1-(4-(6-aminopyridin-3-yl)-1-methyl-1H-pyrrolo[2,3-b]pyridin-2-yl)ethyl)piperidin-4-yl)benzoyl)piperidin-4-yl)methyl)-3-(trifluoro-methyl)piperazin-1-yl)methyl)-3-methyl-2-oxo-2,3-dihydro-1H-benzo[d]imidazol-1-yl)piperidine-2,6-dione]"
1.4 nM,5.5 nM,,"C[C@@H]1CN(Cc2ccc3c(c2)n(C)c(=O)n3C2CCC(=O)NC2=O)C[C@H](C)N1CC1CCN(C(=O)c2ccc(C3CCN([C@@H](C)c4cc5c(-c6ccc(N)nc6)ccnc5n4C)CC3)cc2)CC1 (stereo partly drawn) [Example 3e18, 3-(5-((4-((1-(4-(1-((S)-1-(4-(6-aminopyridin-3-yl)-1-methyl-1H-pyrrolo[2,3-b]pyridin-2-yl)ethyl)-piperidin-4-yl)benzoyl)piperidin-4-yl)methyl)-3,5-cis-dimethylpiperazin-1-yl)methyl)-3-methyl-2-oxo-2,3-dihydro-1H-benzo[d]imidazol-1-yl)piperidine-2,6-dione]"
0.2 nM,1.1 nM,,"COC[C@H]1CN(Cc2ccc3c(c2)n(C)c(=O)n3C2CCC(=O)NC2=O)CCN1CC1CCN(C(=O)c2ccc(C3CCN([C@@H](C)c4cc5c(-c6ccc(N)nc6)ccnc5n4C)CC3)cc2)CC1 (stereo partly drawn) [Example 3e28, 3-(5-(((R)-4-((1-(4-(1-((S)-1-(4-(6-aminopyridin-3-yl)-1-methyl-1H-pyrrolo[2,3-b]pyridin-2-yl)ethyl)piperidin-4-yl)benzoyl)piperidin-4-yl)methyl)-3-(methoxymethyl)piperazin-1-yl)methyl)-3-methyl-2-oxo-2,3-dihydro-1H-benzo[d]imidazol-1-yl)piperidine-2,6-dione]"
2.9 nM,22.4 nM,,"C[C@H]1CN(Cc2ccc3c(c2)C(C)(C)C(=O)N3[C@@H]2CCC(=O)NC2=O)CCN1CC1CCN(C(=O)c2ccc(C3CCN([C@@H](C)c4cc5c(-c6ccc(N)nc6)ccnc5n4C)CC3)cc2)CC1 [Example 3h32, (R)-3-(5-(((S)-4-((1-(4-(1-((S)-1-(4-(6-aminopyridin-3-yl)-1-methyl-1H-pyrrolo[2,3-b]pyridin-2-yl)ethyl)piperidin-4-yl)benzoyl)piperidin-4-yl)methyl)-3-methylpiperazin-1-yl)methyl)-3,3-dimethyl-2-oxoindolin-1-yl)piperidine-2,6-dione]"
0.4 nM,2.3 nM,,"C[C@@H](c1cc2c(-c3ccc(N)nc3)ccnc2n1C)N1CCC(c2ccc(C(=O)N3CCC(CN4[C@@H](C)CN(Cc5ccc6c(c5)n(C)c(=O)n6C5CCC(=O)NC5=O)C[C@@H]4C)CC3)cc2)CC1 (stereo partly drawn) [Example 3e29, 3-(5-(((3S,5S)-4-((1-(4-(1-((S)-1-(4-(6-aminopyridin-3-yl)-1-methyl-1H-pyrrolo [2,3-b]pyridin-2-yl)ethyl)piperidin-4-yl)benzoyl)piperidin-4-yl)methyl)-3,5-dimethylpiperazin-1l-yl)methyl)-3-methyl-2-oxo-2,3-dihydro-1H-benzo[d]imidazol-1-yl)piperidine-2,6-dione]"
1 nM,7.8 nM,,"C[C@H]1CN(Cc2ccc3c(c2)n(C)c(=O)n3C2CCC(=O)NC2=O)CCN1CC1CCN(C(=O)c2ccc(C3CCN([C@@H](C)c4cc5c(-c6ncc(N)cc6F)ccnc5n4C)CC3)cc2)CC1 (stereo partly drawn) [Example 3e38, 3-(5-(((S)-4-((1-(4-(1-((S)-1-(4-(5-amino-3-fluoropyridin-2-yl)-1-methyl-1H-pyrrolo[2,3-b]pyridin-2-yl)ethyl)piperidin-4-yl)benzoyl)piperidin-4-yl)methyl)-3-methylpiperazin-1-yl)methyl)-3-methyl-2-oxo-2,3-dihydro-1H-benzo[d]imidazol-1-yl)piperidine-2,6-dione]"
